The source of these data is article PMC11679033, “Assessing the Potential Synergistic/Antagonistic Effects of Citrinin and Cannabidiol on SH-SY5Y, HepG2, HEK293 Cell Lines, and Human Lymphocytes” (Toxins, 2024).

Molecules are shown by their SMILES. Several values for one entry are separate records, joined by “and”; a condition that tells them apart may be missing. Equal entries are not always repeated.

The term IC50 denotes the concentration that inhibits the measured activity by half.

Data set [1] in a line: MTS viability assay, SH-SY5Y. In kind it is cell-based, human. The settings on record: human, SH-SY5Y cells; SH-SY5Y, 24 h exposure, MTS; read-out: IC50 (cytotoxicity). How it is done: (§1) Human neuroblastoma SH-SY5Y cells (ECACC 94030304), human hepatocyte carcinoma HepG2 (ECACC 85011430) and human embryonic kidney HEK293 (ECACC 85120602) used in the experiments were obtained from the European Collection of Authenticated Cell Cultures (ECACC) through Sigma-Aldrich (Steinheim, Germany). SH-SY5Y cells were grown in Dulbecco’s Modified Eagle’s Medium F12 containing 15% (v/v) fetal bovine serum (FBS), 2 mM glutamine, 1% (v/v) penicillin/streptomycin (PenStrep solution), and 1% (v/v) non-essential amino acids (NEAA solution). HEK293 and HepG2 cells were grown in EMEM medium (Sigma-Aldrich, Steinheim, Germany) supplemented with 10% (v/v) FBS, 2 mM glutamine, 1% (v/v) PenStrep and 1% (v/v) NEAA. All media and supplements were purchased from Sigma-Aldrich, Steinheim, Germany. Cells were cultured at 37 °C in a 5% CO2 atmosphere, the medium was changed every two days, and passage was carried out according to the manufacturer’s protocol.
(§2) MTS assay (CellTiter 96® AQueous One Solution Cell Proliferation Assay, Promega, Madison, WI, USA) was used to determine the viability of cells/cytotoxic properties of tested compounds by measuring cells’ mitochondrial succinate dehydrogenase activity. The procedure followed a previously described protocol. In brief, the cells were seeded in transparent 96-well plates at a density of 20,000 cells/well one day before the experiment and treated with tested compounds in concentrations: 0.01, 0.1, 0.5, 1, 2, 5, 10, 25, 50, 100 and 300 µM. Triton X-100 at a final concentration of 0.18% (v/v) (stock of 9% in water; Sigma-Aldrich, Steinheim, Germany) was used as a positive control. After 24 h, treatment with tested compounds and incubation with MTS reagent, the absorbance was read at 492 nm on an Infinite M200PRO (Tecan Group Ltd., Männedorf, Switzerland) plate reader. Data were taken from at least three independent experiments (each treatment performed in duplicate or triplicate) and expressed as percentages (mean ± standard error) of viable cells compared to control (untreated) cells. IC50 values were determined by a nonlinear fit equation predefined in Prism software 8 (GraphPad Software, San Diego, CA, USA).
(§3) The same method was used to evaluate a potential toxic synergistic effect on cells exposed to a combination of CBD and CIT at approximately LOAEL doses (lowest observed adverse effect level, 1 and 30 μM for SH-SY5Y and HepG2, and 2 and 0.05 μM for HEK293, respectively). There is no official recommendation for CBD oral use, but according to the available literature, we used a dose that corresponded to daily intake, which was 10 mg/kg/day (calculated on a person of 70 kg ~ 1 μM). These selected LOAEL concentrations were used for all other assays as well.

Data set [2] relates to SH-SY5Y cells. In words: MTS viability assay, SH-SY5Y. The settings on record: for IC20: Homo sapiens, established on SH-SY5Y and HepG2 cell models, read-out: IC20 concentration; for lowest observed adverse effect level (LOAEL), approximate / cell viability at LOAEL concentrations: SH-SY5Y, 24 h; for cell viability at LOAEL concentrations: CBD 1 μM, CIT 30 μM, alone or combined. Type of data set: cell-based, human. How it is done: as §1, §2, §3
For orientation: Formazan colour is commonly taken as a measure of viable cells.

A short description of data set [3]: MTS viability assay, HEK293. In kind it is cell-based, human. Conditions: human, HEK293 cells; HEK293, 24 h exposure, MTS; read-out: IC50 (cytotoxicity). How it is done: as §1, §2, §3
The test system of data set [4] is HEK293 cells. The data set is described as follows: MTS viability assay, HEK293. The settings on record: HEK293, 24 h; for cell viability at LOAEL concentrations: CBD 2 μM, CIT 0.05 μM, alone or combined. In kind it is cell-based, human. How it is done:
as §1, §2, §3

In data set [5] the test system is SH-SY5Y cells. The data set is described as follows: Cell membrane integrity (LDH release), SH-SY5Y. In kind it is cell-based, human. The settings on record: 24 h, CBD 1 μM, CIT 30 μM, alone or combined. How it is done:
(§4) Cell membrane integrity was determined after exposure to compounds’ concentrations corresponding to LOAEL concentrations in 24 h by measuring the release of the intracellular lactate dehydrogenase (LDH) and the procedure followed a previously described protocol using The CytoTox-ONE™ Homogeneous Membrane Integrity Assay (Promega, Madison, WI, USA). In short, the cells were seeded in black 96-well plates at a density of 10,000 cells/well one day before the experiment and treated with selected LOAEL concentrations. Triton X-100 at a final concentration of 0.18% (v/v) (stock of 9% in water) was used as a positive control to determine the maximal LDH release. Data were taken from at least two independent experiments (each treatment performed in duplicate or triplicate) and plotted as a percentage of LDH release compared to the determined maximal LDH release, according to the manufacturer’s calculation protocol.
For orientation: Release of lactate dehydrogenase indicates damage to the cell membrane.

Another data set concerns HepG2 cells. The data set is described as follows: Cell membrane integrity (LDH release), HepG2. In kind it is cell-based, human. The settings on record: HepG2, 24 h; CBD 1 μM, CIT 30 μM, alone or combined. As for the experimental part:
as §4

For data set [6], the system named is HEK293 cells. In words: Cell membrane integrity (LDH release), HEK293. Type of data set: cell-based, human. Conditions: HEK293, 24 h; CBD 2 μM, CIT 0.05 μM, alone or combined. As for the experimental part: as §4
Data set [7] relates to human peripheral blood lymphocytes. The data set is described as follows: Alkaline comet assay. In kind it is cell-based. Conditions: 24 h, CIT 30 µM; for tail intensity, mean value ± SE: CBD 1 µM, bleomycin 1.25 µg/mL. How it is done:
The experimental design included the establishment of lymphocyte cultures, and the 24 h treatments with the test compounds, performed according to the last OECD recommendations, given in the Test Guideline No. 487—In Vitro Mammalian Cell Micronucleus Test.
The selection of specific concentrations of test compounds adhered to the guidelines for in vitro genotoxicity testing using comet assay. […] Solutions used in testing were prepared just prior to treatment by dissolving the test compounds in ethanol (Kemika, Zagreb, Croatia).
Two independent trials, with six experimental groups each, were conducted. A total of six replicate cultures for every single experimental group were established. This step was carried out as follows: aliquots of heparinized blood (V = 600 μL per culture) were pipetted into a growth medium RPMI-1640 (Gibco, Grand Island, NY, USA) supplemented with 10% fetal calf serum (Gibco, Grand Island, NY, USA) and antibiotics (penicillin and streptomycin; Sigma-Aldrich, Steinheim, Germany). Lymphocytes were stimulated with a mitogen phytohemagglutinin (Remel, Lenexa, KS, USA) in order to induce cell division prior to exposure to the test chemicals. Cultures were maintained in the humidified atmosphere of 5% CO2 at 37 °C (Heraeus Hera Cell 240 incubator; Langenselbold, Germany).
Negative controls (NCs) were non-treated lymphocytes. Solvent controls (SCs) were lymphocytes treated with ethanol (its final concentration in the culture corresponded to 0.03%). Positive controls (PCs) were lymphocytes treated for 24 h with bleomycin at 1.25 µg/mL (according to [69]). The other three groups were lymphocytes exposed to single CIT, single CBD, and their combination (CIT + CBD, at the same concentrations).
Treatments with test compounds started 20 h after the initial establishment of the cell cultures and lasted for 24 h. Upon completion of the exposure, aliquots of 100 µL of the treated cultures were pipetted in sterile conditions and used to prepare microgels for the alkaline comet assay. The remaining content of flasks was further processed using Cytokinesis-Block Micronucleus Cytome (CBMN Cyt) Assay.

As to `C=C(C)[C@@H]1CCC(C)=C[C@H]1c1c(O)cc(CCCCC)cc1O` [CBD, cannabidiol], the IC50 at 24 h is 13 ± 2 µM in data set [1] and 5 ± 1 µM in data set [3]. The IC20 with SH-SY5Y cells [2] is 1 µM and 3.15 µg/mL. The “lowest observed adverse effect level (LOAEL), approximate” value (shortened to “lowest observed adverse effect level”) was ~ 1 μM in the data set with SH-SY5Y cells [2] and roughly 2 µM in the data set with HEK293 cells [4]. For the same compound, the “cell viability at LOAEL concentrations” value in the data set on SH-SY5Y cells [2] and with HEK293 cells [4] was “did not independently impact cell viability” each time. In addition, the “cell membrane integrity (LDH release)” value with SH-SY5Y cells [5], in the data set with HepG2 cells and in the data set with HEK293 cells [6] was “not significantly compromised” in each case. Further, in data set [7], the “tail intensity, mean value ± SE” value was found to be 1.07 ± 0.08%.
As to `CC1=C2C(=CO[C@H](C)[C@H]2C)C(O)=C(C(=O)O)C1=O` [CIT, citrinin], the half-maximal inhibitory concentration (IC50) at 24 h in data set [1] was 52 ± 8 µM. For the same compound, in the data set on SH-SY5Y cells [2], the IC20 is 30 µM and 7.5 µg/mL; the “lowest observed adverse effect level” value is roughly 30 µM; the “cell viability at LOAEL concentrations” value is “did not independently impact cell viability”. Further, in data set [3], the IC50 at 24 h was 0.44 ± 0.02 µM. In addition, in the data set on HEK293 cells [4], the “IC50 fold lower than that of CBD” value was 11 fold; the “lowest observed adverse effect level” value was roughly 0.05 µM; the “cell viability at LOAEL concentrations” value is given as “did not independently impact cell viability”. The “cell membrane integrity (LDH release)” value with SH-SY5Y cells [5] is listed as “not significantly compromised”. Also, in the data set with HepG2 cells, the “cell membrane integrity (LDH release)” value is “not significantly compromised”. Moreover, in the data set with HEK293 cells [6], the “cell membrane integrity (LDH release)” value was “not significantly compromised”. Also, in data set [7], the “group median value of tail intensity” value was “below 10%” and the “tail intensity, mean value ± SE” value is on record as 6.56 ± 0.37%.
